In PMC12165062, “High‐Throughput Fluorescence Screening Enables Globally Consistent Identification of ABA Signaling Modulators” (Advanced Science, 2025):
Where two headings read alike, the source gives them in different places.

Legend:
PYR1 [1] = target: T1, PYR1 (Arabidopsis thaliana, UniProt O49686); experiment: biochemical; parameters: Fluorescence competition displacing lebactin (1 uM) from PYR1 (8 uM); Kd from double-log titration fit; conditions: 1 uM lebactin, 8 uM PYR1; read-out: F(GhitFluors)/Kd/μM
T1 sequence (O49686 1-191): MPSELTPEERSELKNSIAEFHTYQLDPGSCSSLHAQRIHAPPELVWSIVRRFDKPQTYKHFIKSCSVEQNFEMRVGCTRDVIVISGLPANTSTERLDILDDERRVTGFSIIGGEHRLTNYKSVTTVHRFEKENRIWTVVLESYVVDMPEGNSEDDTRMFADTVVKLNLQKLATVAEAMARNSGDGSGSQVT
Source text: (§1) Validation of the Fluorescent Chemosensor‐Based Screening Platform In‐house Chemical Database Screening Assay To validate the practicality of GhitFluors platform for global high‐throughput identification of ABA receptor modulators, we used this platform to analyze a library comprising several hundreds‐amide compounds. First, we evaluated K d values of several hundreds amide‐compounds using fluorescence competition assays. […] Meanwhile, binding affinities of the six compounds to PYR1 were evaluated using ITC or BLI assays to validate the screening results. […] As depicted in Figure 4a, a significant decrease in fluorescence intensity was observed as the concentration of diopyridin increased, ranging from 30 to 350 µM. When the concentration of diopyridin reached 350 µM, fluorescence intensity was close to the threshold. […] In addition, we also tested the binding affinities of diopyridin with other representative PYLs, including dimer (PYL1, PYL2), and monomer (PYL4, PYL5, and PYL10‐PYL12) that had K d values ranging from 0.97 to 32.8 µM, and 1.6 to 243.7 µM, respectively (Figure S20, Supporting Information).

PYR1 [2] = target: T1, PYR1; experiment: biochemical; parameters: Isothermal titration calorimetry of compound binding to PYR1; conditions: read-out: ITC/Kd/μM
Procedure: as §1, with “To” for “Validation of the Fluorescent Chemosensor‐Based Screening Platform In‐house Chemical Database Screening Assay To”

PYR1 [3] = target: T1, PYR1; experiment: biochemical; parameters: Bio-layer interferometry of compound binding to PYR1; conditions: read-out: BLI/Kd/μM
Procedure: To validate the practicality of GhitFluors platform for global high‐throughput identification of ABA receptor modulators, we used this platform to analyze a library comprising several hundreds‐amide compounds. First, we evaluated K d values of several hundreds amide‐compounds using fluorescence competition assays. […] Meanwhile, binding affinities of the six compounds to PYR1 were evaluated using ITC or BLI assays to validate the screening results. […] As depicted in Figure 4a, a significant decrease in fluorescence intensity was observed as the concentration of diopyridin increased, ranging from 30 to 350 µM. When the concentration of diopyridin reached 350 µM, fluorescence intensity was close to the threshold. […] It should have a low fluorescence background, high fluorescence shift and stability, and appropriate binding affinity, as these determine the accuracy, feasibility and, the sensitivity of this platform, respectively. […] First, we evaluated the fluorescence background of all chemosensors by using 310–370 nm as excitation wavelength. […] In addition, the binding affinity of compound 1a (lebactin) for PYR1 was evaluated by bio‐layer interferometry (BLI). […]

[4] = target: T2, PYR-HAB1 (PYR1 with HAB1) (Arabidopsis thaliana, UniProt O49686); experiment: Ser/Thr phosphatase assay (Promega), HAB1 inhibition via PYR1; assay type: biochemical
T2 construct: HAB1 construct not described in main text; with Protein phosphatase 2C 16
T2 sequence (O49686 1-191): T1 sequence (O49686 1-191)
T2 sequence (Q9CAJ0 1-511 partner): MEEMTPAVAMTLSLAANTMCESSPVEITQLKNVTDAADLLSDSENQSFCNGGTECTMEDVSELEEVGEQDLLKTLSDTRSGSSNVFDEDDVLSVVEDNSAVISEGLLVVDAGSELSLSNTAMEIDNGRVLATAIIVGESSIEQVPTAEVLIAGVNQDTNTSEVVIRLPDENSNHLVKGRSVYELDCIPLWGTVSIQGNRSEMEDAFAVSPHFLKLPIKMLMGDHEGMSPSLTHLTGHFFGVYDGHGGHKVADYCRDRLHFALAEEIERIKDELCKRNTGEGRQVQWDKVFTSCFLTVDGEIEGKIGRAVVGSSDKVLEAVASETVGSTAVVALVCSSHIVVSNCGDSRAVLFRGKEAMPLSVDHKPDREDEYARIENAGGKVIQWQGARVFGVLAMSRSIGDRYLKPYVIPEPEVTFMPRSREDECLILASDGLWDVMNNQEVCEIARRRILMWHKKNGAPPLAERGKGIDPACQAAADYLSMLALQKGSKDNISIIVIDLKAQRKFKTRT

Compound | Kd (PYR1 [1]) [µM] | Kd (PYR1 [2]) [µM] | Kd (PYR1 [3]) [µM] | inhibition at 50 µM [4] [%] | inhibition at 25 µM [4] [%]
CC(C)(C)c1ccc(S(=O)(=O)Nc2c([N+](=O)[O-])cc(Br)cc2[N+](=O)[O-])cc1 [145a, N-(4-bromo-2,6-dinitrophenyl)-4-(tert-butyl)benzenesulfonamide] | 37.8 ± 1.31 | 171 ± 3.76 |  |  | 
COc1ccc(C(=O)Nc2cccc3c2C(=O)N(C2CCC(=O)NC2=O)C3=O)cc1OC (centres unmarked) [173b, N-(2(2,6-dioxopiperidin-3-yl)-1,3-dioxoisoindolin-4-yl)-3,4-dimethoxybenzamide] | 1.55 ± 0.11 |  | 9.5 ± 0.75 |  | 
COc1ccc(C(=O)Nc2cccc3c2C(=O)N(C2CCC(=O)NC2=O)C3=O)cc1OC (centres unmarked) [173b, diopyridin] |  |  |  | > 80 | 
O=[N+]([O-])c1cc(Br)cc([N+](=O)[O-])c1NS(=O)(=O)c1cccc(F)c1 [260a, N-(4-bromo-2,6-dinitrophenyl)-3-fluorobenzenesulfonamide] | 3.96 ± 0.4 | 7.59 ± 1.62 |  |  | 
O=[N+]([O-])c1cc(Br)cc([N+](=O)[O-])c1NS(=O)(=O)c1cccc(Cl)c1 [361a, N-(4-bromo-2,6-dinitrophenyl)-3-chlorobenzenesulfonamide] | 8.25 ± 0.25 | 7.06 ± 1.92 |  |  | 
Cc1ccccc1S(=O)(=O)Nc1c([N+](=O)[O-])cc(Br)cc1[N+](=O)[O-] [368a, N-(4-bromo-2,6-dinitrophenyl)-2-methylbenzenesulfonamide] | 4.73 ± 0.37 | 14.9 ± 3.29 |  |  | 
O=[N+]([O-])c1cc(Br)cc([N+](=O)[O-])c1NS(=O)(=O)c1ccccc1Cl [470a, N-(4-bromo-2,6-dinitrophenyl)-2-chlorobenzenesulfonamide] | 8.43 ± 0.75 | 9.51 ± 2.19 |  |  | 
CC1=CC(=O)CC(C)(C)[C@@]1(O)/C=C/C(C)=C\C(=O)O [ABA] |  |  |  |  | > 80
